In brackets after ≈: the same amount, converted by molar mass.
Columns and labels:
[1] = tested on: Candida albicans; assay: Antimicrobial activity, micro-broth dilution method (Test 1); format: cell-based; conditions: E. MEM, 37° C., 20 hours, 5% CO2, read-out: MIC (minimum inhibitory concentration)
Description: (§1) Test 1 (Antimicrobial activity)
(§2) Antimicrobial activity of FR109615 was measured by a conventional micro-broth dilution method using 96 well multi-trays.
(§3) A suspension of the test microorganism (10^6 cells/ml) was prepared by diluting an overnight cultured broth of the organism with Eagle's minimum essential medium (E. MEM). A serially diluted solution of FR109615 in E. MEM (100 μl ) was added to a well of the multi-tray. To the well, the suspension of the test organism was added. The multi-trays were incubated at 37° C. for 20 hours in 5% CO2 atmosphere.

[2] = tested on: Candida krusei; assay: as above; format: cell-based; conditions: Pichia kudriavzevii, E. MEM, 37° C., 20 hours, 5% CO2, read-out: MIC (minimum inhibitory concentration)
Description: as §1, §2, §3

[3] = tested on: Candida utilis; assay: as above; format: cell-based; conditions: Williopsis jadinii, E. MEM, 37° C., 20 hours, 5% CO2, read-out: MIC (minimum inhibitory concentration)
Description: as §1, §2, §3

[4] = tested on: Mucor rouxianus; assay: as above; format: cell-based; conditions: E. MEM, 37° C., 20 hours, 5% CO2, read-out: MIC (minimum inhibitory concentration)
Description: as §1, §2, §3

[5] = tested on: Tricophyton mentagrophytes; assay: as above; format: cell-based; conditions: E. MEM, 37° C., 20 hours, 5% CO2, read-out: MIC (minimum inhibitory concentration)
Description: as §1, §2, §3

[6] = tested on: C. krusei FP585; assay: Protective effect against fungi in experimental mice infection (Test 2); format: in vivo, ICR strain; conditions: Pichia kudriavzevii, sc, 336 h; C. krusei FP585, inoculum 2.0 × 10^7 cfu/head; cyclophosphamide-immunosuppressed mice; subcutaneous, 1 h after challenge then twice a day for 2 days; survival 14 days, probit method
Description: (§4) Test 2 (Protective effect of FR109615 against fungi in experimental mice infection) (1) Test animal 4 Weeks old mice, ICR strain, each weighing 18-21 g. One group consists of 10 mice. (2) Test method 4 Days before challenge, the test mice intraperitoneally received a saline solution of cyclophosphamide (immunosuppressant) ([…]). Each pf pathogenic microorganisms suspended in saline were injected into mice via the lateral tail vein. One hour after challenge, a saline solution of FR109615 was subcutaneously injected into the mice. This treatment was repeated twice a day for 2 days from the next day after challenge.

[7] = tested on: C. pseudotropicalis FP584; assay: as above; format: in vivo, ICR strain; conditions: Kluyveromyces marxianus, sc, 336 h; C. pseudotropicalis FP584, inoculum 2.0 × 10^7 cfu/head; cyclophosphamide-immunosuppressed mice; subcutaneous, 1 h after challenge then twice a day for 2 days; survival 14 days, probit method
Description: as §4

[8] = tested on: C. stellatoidea FP588; assay: as above; format: in vivo, ICR strain; conditions: Candida albicans, sc, 336 h; C. stellatoidea FP588, inoculum 2.0 × 10^6 cfu/head; cyclophosphamide-immunosuppressed mice; subcutaneous, 1 h after challenge then twice a day for 2 days; survival 14 days, probit method
Description: as §4

[9] = tested on: C. tropicalis 8001; assay: as above; format: in vivo, ICR strain; conditions: Candida tropicalis, sc, 336 h; C. tropicalis 8001, inoculum 5.6 × 10^4 cfu/head; cyclophosphamide-immunosuppressed mice; subcutaneous, 1 h after challenge then twice a day for 2 days; survival 14 days, probit method
Description: as §4

[10] = tested on: Candida albicans FP622; assay: as above; format: in vivo, ICR strain; conditions: sc, 336 h; Candida albicans FP622, inoculum 4.8 × 10^4 cfu/head; cyclophosphamide-immunosuppressed mice; subcutaneous, 1 h after challenge then twice a day for 2 days; survival 14 days, probit method
Description: as §4

[11] = tested on: Staphylococcus aureus Smith; assay: Protective effect against bacteria in experimental mice infection (Test 3); format: in vivo, ICR strain; conditions: inoculum 2.5 × 10^8 cfu, 10 mg/kg subcutaneous once a day for 4 days, 11 days observation, all control mice died
Description: Test 3 (Protective effect of FR109615 against bacteria in experimental mice infection)
4 Weeks old mice, ICR strain, each weighing 18-21 g. One group consists of 10 mice.
Pathogenic microorganism suspended in saline were injected into mice via the lateral tail vein. After challenge, a saline solution of FR109615 was subcutaneously injected into the mice (Dosage: 10 mg/kg) once a day for 4 days. […] All of the control mice (non-treatment group) died.

[12] = tested on: ICR mice; assay: Acute toxicity (Test 4); format: in vivo, 4 weeks old); conditions: female, single intravenous injection, 1 g/kg
Description: The acute toxicity of FR109615 was determined to ICR mice (female, 4 weeks old) by a single intravenous injection.

[13] = Solubility (physicochemical properties)
[14] = tested on: pathogenic microorganisms, especially pathogenic fungi such as pathogenic yeast (e.g. Candida albicans); assay: Antimicrobial activity against pathogenic microorganisms (general statement)

## N[C@H]1CCC[C@H]1C(=O)O [FR109615, (1R, 2S)-2-aminocyclopentanecarboxylic]
[1]
  MIC: 16 µg/mL (≈ 124 µM)
[2]
  MIC: 8 µg/mL (≈ 61.9 µM)
[3]
  MIC: 32 µg/mL (≈ 248 µM)
[4]
  MIC: 500 µg/mL (≈ 3870 µM)
[5]
  MIC: 250 µg/mL (≈ 1940 µM)
[6]
  ED50: 0.78 mg/kg
[7]
  ED50: 2.38 mg/kg
[8]
  ED50: 1.11 mg/kg
[9]
  ED50: 3.8 mg/kg
[10]
  ED50: 0.87 mg/kg
[11]
  survival ratio: 100%
[12]
  acute toxicity, toxic symptom: No toxic symptom was observed
[13]; Acetone
  Solubility: Insoluble
[13]; Chloroform
  Solubility: Insoluble
[13]; Ethanol
  Solubility: Sparingly soluble
[13]; Ethyl acetate
  Solubility: Insoluble
[13]; Methanol
  Solubility: Sparingly soluble
[13]; Water
  Solubility: Soluble
[14]
  antimicrobial activity: strong antimicrobial activity

Source: US5514715A, “Antimicrobial agent, FR109615 and production thereof” (Fujisawa Pharmaceutical Co., Ltd., priority 1987, dated 1996)
